This is an account of results in ChEMBL document CHEMBL3616435, “Cytotoxic cardenolides from the latex of Calotropis procera” (Bioorg Med Chem Lett, 2015).

For this experiment, the system named is Mycobacterium tuberculosis. In words: Antimicrobial activity against Mycobacterium bovis BCG after 3 days by broth microdilution method. Type of experiment: functional. Conditions: variant bovis BCG, 72 h.

`C[C@H]1C[C@H]2O[C@@H]3C[C@@H]4CC[C@@H]5[C@H](CC[C@]6(C)[C@@H](C7=CC(=O)OC7)CC[C@]56O)[C@@]4(C=O)C[C@H]3O[C@@]2(O)[C@H](O)[C@@H]1O` came in with a minimum inhibitory concentration (MIC) of more than 80 µg/mL.
Under `C[C@@H]1C[C@@]2(N=CCS2)[C@]2(O)O[C@@H]3C[C@@]4(C=O)[C@@H](CC[C@@H]5[C@@H]4CC[C@]4(C)[C@@H](C6=CC(=O)OC6)CC[C@]54O)C[C@H]3O[C@@H]2O1` [USCHARIN] stands more than 80 µg/mL; under `C[C@]12[C@H](O)C[C@H]3[C@@H](CC[C@H]4C[C@H](O)CC[C@@]43C=O)[C@@]1(O)CC[C@@H]2C1=CC(=O)OC1`, more than 80 µg/mL; under `C[C@@H]1C[C@@H](O)[C@]2(O)O[C@@H]3C[C@@]4(C=O)[C@@H](CC[C@@H]5[C@@H]4CC[C@]4(C)[C@@H](C6=CC(=O)OC6)CC[C@]54O)C[C@H]3O[C@@H]2O1` [CALACTIN], more than 80 µg/mL.
Compound `C[C@H]1C[C@H]2O[C@@H]3C[C@@H]4CC[C@@H]5[C@H](CC[C@]6(C)[C@@H](C7=CC(=O)OC7)C[C@@H](O)[C@]56O)[C@@]4(C=O)C[C@H]3O[C@@]2(O)[C@@]2(C1)N=CCS2` yielded an MIC of more than 80 µg/mL.
Then `C[C@]12C[C@@H](O)[C@H](O)C[C@@H]1CC[C@@H]1[C@@H]2CC[C@]2(C)[C@@H](C3=CC(=O)OC3)C[C@@H](O)[C@]12O`, with more than 80 µg/mL; and `C[C@]12[C@H](O)C[C@H]3[C@@H](CC[C@H]4C[C@H](O)CC[C@@]43CO)[C@@]1(O)CC[C@@H]2C1=CC(=O)OC1`, with more than 80 µg/mL.
Compound `CO[C@@H]1C[C@@H](C)C[C@H]2O[C@@H]3C[C@@H]4CC[C@@H]5[C@H](CC[C@]6(C)[C@@H](C7=CC(=O)OC7)C[C@@H](O)[C@]56O)[C@@]4(C=O)C[C@H]3O[C@@]12O` gave a minimum inhibitory concentration (MIC) of more than 80 µg/mL.
Then `C[C@@H]1C[C@@H](O)[C@]2(O)O[C@@H]3C[C@@]4(C)[C@@H](CC[C@@H]5[C@@H]4CC[C@]4(C)[C@@H](C6=CC(=O)OC6)C[C@@H](O)[C@]54O)C[C@H]3O[C@@H]2C1`, with more than 80 µg/mL.
As to `C[C@]12[C@H](O)C[C@H]3[C@@H](CC[C@H]4C[C@@H](O)CC[C@@]43CO)[C@@]1(O)CC[C@@H]2C1=CC(=O)OC1`, the minimal inhibitory concentration (MIC) was more than 80 µg/mL.
The compound `C[C@@H]1C[C@@H](O)[C@]2(O)O[C@@H]3C[C@@]4(C=O)[C@@H](CC[C@@H]5[C@@H]4CC[C@]4(C)[C@@H](C6=CC(=O)OC6)C[C@@H](O)[C@]54O)C[C@H]3O[C@@H]2C1` registered a minimum inhibitory concentration (MIC) of more than 80 µg/mL.

The term MIC denotes the smallest concentration in the dilution series that meets the test's criterion for growth inhibition. A low value points to inhibition by little substance.
